In US9873709B2 (priority 2013, dated 2018) one finds Ki data, which are given here for 10 compounds.

Chain of isolated recombinant JAK2 kinase domain (O60674 849-1124): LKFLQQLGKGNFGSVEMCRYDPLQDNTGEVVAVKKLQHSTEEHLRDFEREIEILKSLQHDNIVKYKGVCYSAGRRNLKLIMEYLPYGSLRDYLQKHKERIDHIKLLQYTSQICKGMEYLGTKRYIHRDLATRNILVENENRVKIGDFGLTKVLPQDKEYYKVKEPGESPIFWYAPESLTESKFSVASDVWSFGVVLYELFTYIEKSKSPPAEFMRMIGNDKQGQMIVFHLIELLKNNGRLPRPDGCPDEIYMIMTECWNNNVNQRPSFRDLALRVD

This experiment has as its target isolated recombinant JAK2 kinase domain (Homo sapiens (Human), UniProt O60674). As to conditions: read-out: JAK2 Ki; isolated recombinant JAK2 kinase domain, 25 μM ATP.
By Ki is commonly meant a measure of affinity in units of concentration, obtained from inhibition or displacement. Consider `CN1CCC(N(C)C(=O)c2ccc(Nc3nc4c(N5CCC6(CC5)CNC(=O)O6)cccn4n3)cc2)CC1` [Example 1-28, N-methyl-N-(1-methyl-4-piperidyl)-4-[[8-(2-oxo-1-oxa-3,8-diazaspiro[4.5]decan-8-yl)-[1,2,4]triazolo[1,5-a]pyridin-2-yl]amino]benzamide], for which the Ki turned out to be 0.00821 µM.
Next, `CN1CCC(N(C)C(=O)c2ccc(Nc3nc4c(N5CCN6C(=O)NCCC6C5)cccn4n3)cc2)CC1` (stereo not shown) [Example 1-31, N-methyl-N-(1-methyl-4-piperidyl)-4-[[8-(6-oxo-3,4,7,8,9,9a-hexahydro-1H-pyrazino[1,2-c]pyrimidin-2-yl)-[1,2,4]triazolo[1,5-a]pyridin-2-yl]amino]benzamide]: 0.0524 µM; `CN1CCC(N(C)C(=O)c2ccc(Nc3nc4c(N5CCN6C(=O)COC[C@@H]6C5)cccn4n3)cc2)CC1` [Example 1-32, 4-[[8-[(9aS)-4-oxo-6,7,9,9a-tetrahydro-1H-pyrazino[2,1-c][1,4]oxazin-8-yl]-[1,2,4]triazolo[1,5-a]pyridin-2-yl]amino]-N-methyl-N-(1-methyl-4-piperidyl)benzamide]: 0.0288 µM; `CN1CCC(N(C)C(=O)c2ccc(Nc3nc4c(N5CCN6C(=O)COC[C@H]6C5)cccn4n3)cc2)CC1` [Example 1-33, 4-[[8-[(9aR)-4-oxo-6,7,9,9a-tetrahydro-1H-pyrazino[2,1-c][1,4]oxazin-8-yl]-[1,2,4]triazolo[1,5-a]pyridin-2-yl]amino]-N-methyl-N-(1-methyl-4-piperidyl)benzamide]: 0.0387 µM.
Turning to `CN1CCC(N(C)C(=O)c2ccc(Nc3nc4c(N5CCC(O)(c6ccccc6Cl)CC5)cccn4n3)cc2)CC1` [Example 1-35, 4-[[8-[4-(2-chlorophenyl)-4-hydroxy-1-piperidyl]-[1,2,4]triazolo[1,5-a]pyridin-2-yl]amino]-N-methyl-N-(1-methyl-4-piperidyl)benzamide], the Ki was determined as 0.0277 µM.
Next, `Cc1ccc(C2(O)CCN(c3cccn4nc(Nc5ccc(C(=O)N(C)C6CCN(C)CC6)cc5)nc34)CC2)cc1` [Example 1-39, 4-[[8-[4-hydroxy-4-(p-tolyl)-1-piperidyl]-[1,2,4]triazolo[1,5-a]pyridin-2-yl]amino]-N-methyl-N-(1-methyl-4-piperidyl)benzamide]: 0.00352 µM; `COc1ccc(C2(O)CCN(c3cccn4nc(Nc5ccc(C(=O)N(C)C6CCN(C)CC6)cc5)nc34)CC2)cc1` [Example 1-40, 4-[[8-[4-hydroxy-4-(4-methoxyphenyl)-1-piperidyl]-[1,2,4]triazolo[1,5-a]pyridin-2-yl]amino]-N-methyl-N-(1-methyl-4-piperidyl)benzamide]: 0.00458 µM.
The figure for `CN1CCC(N(C)C(=O)c2ccc(Nc3nc4c(N5CCC(C(=O)N6CC(C)(C)C6)CC5)cccn4n3)cc2)CC1` [Example 1-42, 4-{8-[4-(3,3-Dimethyl-azetidine-1-carbonyl)-piperidin-1-yl]-1,8a-dihydro [1,2,4]triazolo[1,5a]pyridine-2-ylamino}-N-methyl-N-(1-methyl-piperidin-4-yl)-benzamide] is 1.09 µM.
Next, `CN1CCC(N(C)C(=O)c2ccc(Nc3nc4c(N5CCC(C#N)(c6ccccc6)CC5)cccn4n3)cc2)CC1` [Example 1-45, 4-[[8-(4-cyano-4-phenyl-1-piperidyl)-[1,2,4]triazolo[1,5-a]pyridin-2-yl]amino]-N-methyl-N-(1-methyl-4-piperidyl)benzamide]: 0.0204 µM; `CN1CCC(N(C)C(=O)c2ccc(Nc3nc4c(N5CCc6ccccc6C5)cccn4n3)cc2)CC1` [Example 1-46, 4-[[8-(3,4-dihydro-1H-isoquinolin-2-yl)-[1,2,4]triazolo[1,5-a]pyridin-2-yl]amino]-N-methyl-N-(1-methyl-4-piperidyl)benzamide]: 0.0101 µM.
